Here are results for 1 molecule from patent US20230248826A1, “Synchronizing Tumor Cells to the G2/M Phase Using TTFields Combined with Taxane or Other Anti-Microtubule Agents” (Novocure GmbH, priority 2016, published 2023).

What all share (format): cell-based, human
In assay [1] the test system is Caov-3 cells. Put plainly: Cell cycle analysis by flow cytometry, Caov-3. The following applies: 72 hours. The procedure: (§1) The human ovarian carcinoma cell line A2780 was obtained from the European Collection of Cell Cultures. The human ovarian adenocarcinoma cell lines OVCAR-3 (HTB-161) and Caov-3 (HTB-75) were obtained from the American Type Culture Collection (ATCC). Paclitaxel (Sigma Aldrich, Rehovot, Israel) dissolved in DMSO was used at the following concentrations: 1 nM, 2 nM, 4 nM, 10 nM, and 100 nM. TTFields were applied in vitro using special ceramic Petri dishes with two pairs of transducer arrays printed perpendicularly on the outer walls of a Petri dish. The inner surfaces of the electrodes were coated with a high dielectric constant ceramic (lead magnesium niobate-lead titanate (PMN-PT)). […] By selectively activating the signals that were applied to the electrodes, the orientation of the TTFields was switched 90° every 1 second, thus covering the majority of the orientation axis of cell divisions, as previously described by Kirson et al. During the experiment, temperature was measured by 2 thermistors (Omega Engineering, Stamford, Conn.) attached to the walls of the Petri dish. […] Cell cycle distribution was then quantified using iCyt EC800. Fluorescence signals were collected at the wavelengths of 525/50 nm for Annexin V and 665/30 nm for 7-AAD. The data was analyzed using the Flowjo software. […]
(In flow cytometry, cells or beads pass a laser one at a time.)

Assay [2] deals with A2780 cells. Put plainly: Mitotic figures analysis by confocal microscopy, A2780. The following applies: 4 nM paclitaxel combined with 2.7 V/cm pk-pk, 200 kHz TTFields, 72 hours, A2780, compared to control and single treatments. The protocol: (§2) The human ovarian carcinoma cell line A2780 was obtained from the European Collection of Cell Cultures. The human ovarian adenocarcinoma cell lines OVCAR-3 (HTB-161) and Caov-3 (HTB-75) were obtained from the American Type Culture Collection (ATCC). Paclitaxel (Sigma Aldrich, Rehovot, Israel) dissolved in DMSO was used at the following concentrations: 1 nM, 2 nM, 4 nM, 10 nM, and 100 nM.
(§3) TTFields were applied in vitro using special ceramic Petri dishes with two pairs of transducer arrays printed perpendicularly on the outer walls of a Petri dish. The inner surfaces of the electrodes were coated with a high dielectric constant ceramic (lead magnesium niobate-lead titanate (PMN-PT)). The transducer arrays were connected to a sinusoidal waveform generator which generated fields at 200 kHz in the medium. By selectively activating the signals that were applied to the electrodes, the orientation of the TTFields was switched 90° every 1 second, thus covering the majority of the orientation axis of cell divisions, as previously described by Kirson et al. During the experiment, temperature was measured by 2 thermistors (Omega Engineering, Stamford, Conn.) attached to the walls of the Petri dish. All cells suspensions were grown on a cover slip inside the Petri dish and treated with TTFields at intensity of 2.7 V/cm. […]

Assay [3] relates to OVCAR-3 cells. Put plainly: Cell cycle analysis by flow cytometry, OVCAR-3. Conditions: 72 hours. The procedure:
as §1

Assay [4] deals with Caov-3 cells. As to the kind of experiment: Mitotic figures analysis by confocal microscopy, Caov-3. The following applies: 4 nM paclitaxel combined with 2.7 V/cm pk-pk, 200 kHz TTFields, 72 hours, Caov-3, compared to control and single treatments. The protocol:
as §2, §3

In assay [5] the test system is OVCAR-3 cells. As to the kind of experiment: Mitotic figures analysis by confocal microscopy, OVCAR-3. The following applies: 4 nM paclitaxel combined with 2.7 V/cm pk-pk, 200 kHz TTFields, 72 hours, OVCAR-3, compared to control and single treatments. The procedure: as §2, §3
Assay [6] has as its system A2780 cells. As to the kind of experiment: Cell cycle analysis by flow cytometry, A2780. The following applies: 8 hours. The protocol: as §1
Where [7] appears, read: low dose paclitaxel (2, 4 and 10 nM) combined with TTFields (2.7 V/cm, 200 kHz).
[8] abbreviates: paclitaxel alone, without TTFields.

Turning to `CC(=O)O[C@H]1C(=O)[C@@]2(C)[C@H]([C@H](OC(=O)c3ccccc3)[C@]3(O)C[C@H](OC(=O)[C@H](O)[C@@H](NC(=O)c4ccccc4)c4ccccc4)C(C)=C1C3(C)C)[C@]1(OC(C)=O)CO[C@@H]1C[C@@H]2O` [paclitaxel], the “number of cells in the G2/M phase” value with Caov-3 cells [1] (setting [7]) and in the assay on OVCAR-3 cells [3] (setting [7]) was “dramatically increased” in each case. Besides, the “cells in the G2/M phase” value is “accumulated in the G2/M phase in a dose dependent manner” in the assay with Caov-3 cells [1] (setting [8]); “accumulated in the G2/M phase in a dose dependent manner” in the assay on OVCAR-3 cells [3] (setting [8]); “accumulated in the G2/M phase even after a short treatment duration” in the assay on A2780 cells [6] (low dose paclitaxel combined with TTFields (2.7 V/cm, 200 kHz)); “accumulated in the G2/M phase in a dose dependent manner” with A2780 cells [6] (setting [8]). Further, the “mitotic figures (mitotic arrest)” value in the assay on A2780 cells [2], with Caov-3 cells [4] and in the assay on OVCAR-3 cells [5] was “substantial increase in mitotic figures” throughout.
